EP2264054A1, “Cloning, yeast expression, purification and biological activity of a truncated form of the soybean 7S globulin alfa ' subunit involved in Hep G2 cell cholesterol homeostasis” (Indena S.p.A., priority 2009, dated 2010)

Key:
HepG2 cells [1] = test: Degradation of 125I-LDL by HepG2 cells; format: cell-based, human; details: 1.0 µmol/L
Procedure: Cell cultures. […] Cells were grown in monolayers in 90 mm-diameter Petri dishes, and maintained at 37°C in a humidified atmosphere of 95% air, 5% CO2 in MEM supplemented with 10% fetal calf serum (FCS), non essential amino acid solution (1%, v/v), penicillin (10^5 U/L), streptomycin (0.1 g/L), tricine buffer (20 mmol/L, pH 7.4), NaHCO3 (24 mmol/L) and sodium pyruvate (0.11 g/L). For experiments designed to evaluate the LDL receptor modulation, cells were seeded in 35 mm plastic dishes (3-5 x 10^5 cells) and used just before reaching confluence. In all cell culture experiments, the medium was changed every 2-3 days. In order to assess cell viability, culture media from cells exposed to tα' at different concentrations were tested by methyltetrazolium salts (MTT) assay, essentially as described in ref. 9. Cell enzyme leakage was determined by measuring lactate dehydrogenase (LDH) activity, using a kinetic (LDH/LD) diagnostic kit (Sigma Diagnostics). […]
Uptake and degradation of ^125I-LDL. […] Specific uptake (binding + internalization) and degradation of ^l25I-LDL were evaluated as previously reported [2]. […] Differences in cell uptake and degradation of LDL after cell incubation with tα' at different concentrations were determined by ANOVA followed by Dunnett's test. Values are expressed as means ± SD; P values < 0.05 were considered as statistically significant.

HepG2 cells [2] = test: Uptake of 125I-LDL by HepG2 cells; format: cell-based, human; details: 1.0 µmol/L
From the text: Cell cultures. The established human hepatoma cell line (HepG2) was obtained from American Type Culture Collection (Rockville, MD). Eagle's minimum essential medium (MEM), fetal calf serum, trypsin-EDTA (1x), penicillin (10^5 U/L), streptomycin ([…]), tricine buffer (1 mmol/L, pH 7.4) and non-essential amino acid solutions (100x) were from GIBCO (Madison, WI). Petri dishes were from COSTAR (Cambridge, MA). Filters were from Millipore (Bedford, MA). The Protein Coomassie Plus Protein Assay kit was purchased from Pierce (Rockford, IL, USA). ^125Iodine, carrier free, in 100 mmol/L NaOH, was from Perkin Elmer Life Sciences (Boston, MA). Sephadex G25 columns (PD10) were from Pharmacia Biotech (Uppsala, Sweden). LDH and MTT kit were from Sigma Diagnostics (Milano-Italy). All other chemicals were of analytical grade from Merck (Darmstadt, Germany). […] Cell enzyme leakage was determined by measuring lactate dehydrogenase (LDH) activity, using a kinetic (LDH/LD) diagnostic kit (Sigma Diagnostics). […]
Uptake and degradation of ^125I-LDL. […] Specific uptake (binding + internalization) and degradation of ^l25I-LDL were evaluated as previously reported. […] Differences in cell uptake and degradation of LDL after cell incubation with tα' at different concentrations were determined by ANOVA followed by Dunnett's test. Values are expressed as means ± SD; P values < 0.05 were considered as statistically significant.

LDL-R = details: Hep G2 cells exposed to the peptide at 100 µM; cited from earlier work
[3] = 24 h preincubation in MEM with 5% LPDS, then 125I-LDL 7.5 mg/L for 5 h, mean ± SD

In the case of `CCC(C)(C)C(=O)O[C@H]1C[C@@H](C)C=C2C=C[C@H](C)[C@H](CC[C@@H]3C[C@@H](O)CC(=O)O3)[C@H]21` [Simvastatin], the Degradation (HepG2 cells [1]; [3]) is reported as 195 ± 7.9 ng125I-LDL/ mg cell protein, the Degradation (HepG2 cells [1]; relative to LPDS = 100) is reported as 250% and the Uptake (HepG2 cells [2]; [3]) is reported as 250 ± 11.2 ng125I-LDL/ mg cell proteins. The Uptake (HepG2 cells [2]; relative to LPDS = 100) was 278%.

In the case of “FVVNATSN [LDL-R transcription stimulating peptide deriving from the 7S globulin β chain, from a soybean hydrolysate and by chemical synthesis]”, the “increased LDL-R transcription” value (LDL-R) is given as “+148%”.
